{"source": "patent US11253507B2", "about": "(Singapore Health Services PTE LTD, priority 2017, dated 2022)", "key": {"C57BL/6J mice": {"system": "C57BL/6J mice", "assay": "Spectacle lens-induced myopia (−15 D lens) model, ocular biometry (axial length, refraction) after 0.01% atropine pre-treatment", "format": "in vivo", "conditions": "for Change in AL, Avg +/− SEM: Group 2 mean (n=7), 0.01% atropine pre-treatment for 2 weeks", "description": "Animals: Three weeks old C57BL/6J mice were purchased from InVivos, Singapore and were held at the animal holding unit of SingHealth Experimental Medicine Centre. The experimental animals were housed individually in standard mouse cages at 25° C. on a schedule of 12:12 h of light on (325 lx) and off (0 lx), with mouse pellets and water available ad libidum. All the procedures performed in this study complied with the Association of Research in Vision and Ophthalmology (ARVO) Statement for the Use of Animals in Ophthalmic and Vision Research and were approved by SingHealth IACUC. Both the eyes of each animal were screened for the ophthalmic abnormalities, such as corneal opacities and anterior polar cataracts.\nMouse model of experimental myopia: Spectacle lens-induced myopia model was established by placing −15 D hard lens on the right eye of the animal, which served as the experimental eye, at post-natal day 35. Briefly, a −15 D lens (PMMA spectacle lens in blue tint, radius of outer curvature 8.5, inner curvature 8 mm, lens thickness 0.5 mm, Flexilens, India) was glued to an annulus (with 8 mm base curve) of Velcro. This mating piece was then attached to the Velcro that had been previously glued to the hair around the right experimental eye using a cyanoacrylate (Super Glue gel, UHU, Germany). This set up ensures that an air gap of 1.5 mm existed between the back part of the lens and the anterior surface of the cornea, so that the contact lens optically acted as a spectacle lens. The right eye of naïve group was attached with plano lens and acted as a negative control in the experimental study. Both the eyes in each animal were examined daily for any infection and the lenses were also cleaned regularly in dim red light. Left eyes were kept uncovered and were not used for any ocular biometry measurement in this study. Elizabethan collars made from thin plastic were fitted around the neck of each mouse upon lens-induction. This was done so as to prevent the mice from removing their lenses. Food pellets were placed on the floor of the cage to make eating easier. This strategy has also been followed previously by other groups doing mouse model of lens-induced myopia (Schaeffel et al., 2004).\nTreatment protocols: A total of 27 mice were divided into 4 different groups as mentioned in Table 1, below. […] 7 μL of drug was administered topically to the right eye in dim red light at the same time each day. This was followed by lens (either −15 D or plano) induction on post-natal day 35, that was kept attached until day 49.\n(§1) Ocular biometry such as axial length (AL) and refraction measurements were measured as described in Example 2. The measurements were done just before and 2 weeks after lens-induction, at days 35 and 49, respectively. The data was analyzed using the GraphPad Prism software version 7.02. Changes in AL and refraction between any two groups were analyzed using independent unpaired t-tests. A difference at p value<0.05 was considered statistically significant. Data are reported as mean+/−SEM. The body weights were recorded at post-natal days 22, 35 and 49."}, "[1]": {"assay": "Body weights in the lens-induced myopia study", "format": "in vivo, mice", "conditions": "0.01% atropine topical; post-natal days 22, 35 and 49", "description": "as §1, with “49. […] Changes in AL and refraction at day 49 relative to measurements at day 35 are shown in FIG. 3A and FIG. 3B, respectively.” for “49.”"}, "B6J (Mus musculus) mice": {"system": "B6J (Mus musculus) mice", "assay": "Murine myopia model (−10 D lens), atropine sulfate eye drops prior to inducing myopia, ocular biometry", "format": "in vivo", "description": "Animals: Breeding pair B6J (Mus musculus) mice were obtained from Jackson Lab and produced offspring. Naive control animals were housed in groups of 6 while experimental animals were housed individually in standard mouse cages after 21 days of age at 25° C. on a schedule of 12:12 h of light on and off with mouse pellets and water available ad libidum. Approval was obtained from the SingHealth Institutional Animal Care and Use of Committee (IACUC) and all procedures performed in this study complied with the Association of Research in Vision and Ophthalmology (ARVO) Statement for the Use of Animals in Ophthalmology and Vision Research.\nMurine Myopia Model: A −10 D contact lens (PMMA Contact Lens in Grey Tint, 8.5 mm diameter, 8 mm base curve, refractive Index: 1.43, axial thickness: 0.5 mm) was placed over the right eye on day 21 by gluing to an annulus of velcro, and then attaching to a matching piece of velcro that had been previously sutured to the skin around the eye. The spectacle lenses were cleaned daily in dim light and left eyes were uncovered and served as controls. […]\nOcular biometry assessment: Refractions and biometry measurements were recorded every week until the end of the study. Axial length was measured with in vivo Optic Low Coherence Interferometry (OLCI-AcMaster). Refraction was measured by automated eccentric photorefractor. […]"}, "patients": {"system": "patients", "assay": "Adverse effects of treatment with very low concentration atropine composition (pupil dilation, loss of accommodation)", "format": "in vivo, human", "conditions": "composition with very low concentration of atropine (less than 0.025%, e.g. 0.01%); mean +/− SD", "from_the_text": "The pupil dilation associated with the treatment is often no greater than 2 mm, e.g., no greater than 1.9 mm, no greater than 1.8 mm, no greater than 1.7 mm, no greater than 1.5 mm, or no greater than 1.49 mm. Typically, patients treated with the composition disclosed above may experience pupil dilation of 0.74+/−0.75 mm. The loss of accommodation associated with the treatment is also minimal, typically no greater than 10 D, e.g., no greater than 9 D, no greater than 8.5 D, no greater than 8.8 D, or no greater than 8 D. Typically, patents treated with the composition disclosed above may experience a loss of accommodation of 4.6+/−4.2 D."}, "myopic children": {"system": "myopic children", "conditions": "0.01% atropine daily, cited from earlier work"}, "[2]": {"conditions": "Group 2, 0.01% atropine pre-treatment day 22-35, 2 weeks after −15 D lens induction, individual mice"}, "[3]": {"conditions": "Group 2, 0.01% atropine pre-treatment, day 49 relative to day 35, −15 D lens, individual mice"}}, "note": "Values joined by “and” are separate entries in the source; they are usually repeats but may differ in a detail not shown here. Identical values can stand only once.", "data": [{"smiles": "CN1[C@@H]2CC[C@H]1C[C@@H](OC(=O)C(CO)c1ccccc1)C2", "note": "(stereo partly shown) [Atropine, atropine]", "values": [{"measurement": "Reduction of the increase in AL as compared to vehicle pre-treated myopic eyes", "setting": "C57BL/6J mice; 0.01% atropine topical for 2 weeks before lens-induction, two-tailed p-value=0.1557", "value": "~15", "unit": "%"}, {"measurement": "Refraction at D35", "setting": "C57BL/6J mice; Group 2, 0.01% atropine 7 μL topical daily, day 22-35, right eye, just before −15 D lens induction, individual mice", "value": "7.44 Diopter and 3.71 Diopter and 7.66 Diopter and 5.96 Diopter and 5.29 Diopter and 5.43 Diopter and 8.34 Diopter"}, {"measurement": "AL at D35", "setting": "C57BL/6J mice; Group 2, 0.01% atropine 7 μL topical daily, post-natal day 22-35, right eye, just before −15 D lens induction, individual mice", "value": "3.189 mm and 3.159 mm and 3.195 mm and 3.214 mm and 3.297 mm and 3.250 mm and 3.269 mm"}, {"measurement": "AL at D49", "setting": "C57BL/6J mice; [2]", "value": "3.268 mm and 3.238 mm and 3.277 mm and 3.340 mm and 3.374 mm and 3.335 mm and 3.386 mm"}, {"measurement": "Refraction at D49", "setting": "C57BL/6J mice; [2]", "value": "5.22 Diopter and −1.85 Diopter and 6.30 Diopter and 6.26 Diopter and 6.27 Diopter and 4.17 Diopter and 8.14 Diopter"}, {"measurement": "Change in AL", "setting": "C57BL/6J mice; [3]", "value": "0.079 mm (2×) and 0.082 mm and 0.126 mm and 0.077 mm and 0.084 mm and 0.117 mm"}, {"measurement": "Change in refraction", "setting": "C57BL/6J mice; [3]", "value": "−2.22 Diopter and −5.57 Diopter and −1.37 Diopter and 0.30 Diopter and 0.99 Diopter and −1.26 Diopter and −0.20 Diopter"}, {"measurement": "Change in AL, Avg +/− SEM", "setting": "C57BL/6J mice; day 49 relative to day 35, −15 D lens", "value": 0.092, "unit": "mm"}, {"measurement": "Change in AL, Avg +/− SEM", "setting": "C57BL/6J mice; day 49 relative to day 35, −15 D lens, listed as atropine", "value": 0.092, "unit": "mm"}, {"measurement": "Impact on body weights", "setting": "[1]", "value": "Neither the drug (atropine and vehicle) nor the lens treatment adversely impacted the body weights"}, {"measurement": "Refractive error (refraction state)", "setting": "B6J (Mus musculus) mice; Atropine sulfate 1% for 2 weeks prior to −10 D lens for 4 weeks, FIG. 1B, p<0.01 vs −10 D lens alone", "value": "remained hyperopic"}, {"measurement": "Effect on axial elongation (axial length)", "setting": "B6J (Mus musculus) mice; Group 2: 1% daily 10 μl topical from day 21 for 2 weeks, then −10 D lens for 4 weeks, FIG. 1A, p<0.01, n=18", "value": "blocked most of the elongation of axial length"}, {"measurement": "Loss of accommodation", "setting": "patients", "value": "4.6+/−4.2 D"}, {"measurement": "Pupil dilation", "setting": "patients", "value": "0.74+/−0.75 mm"}, {"measurement": "Reduction of mean 2-year decline in SE vs placebo", "setting": "myopic children; ATOM1 and ATOM2", "value": "about 58%"}, {"measurement": "Mean 2-year decline in SE", "setting": "myopic children; placebo about −1.2 D (Chia et al.)", "value": "~−0.5", "unit": "D"}]}]}
